Data from ChEMBL document CHEMBL5465560, “Selectivity Literature for EUbOPEN Chemogenomic Library” (2024).

What was measured:
[1] = molecular target: Protein-tyrosine kinase 6 (Homo sapiens, UniProt Q13882); assay: Selectivity interaction (KinomeScan (DiscoverX)) EUB0000092b PTK6; conditions: at 10 µM
[2] = molecular target: T1, Eukaryotic elongation factor 2 kinase (Homo sapiens) (UniProt O00418); assay: Selectivity interaction (Kinase panel (Invitrogen)) EUB0000639a EEF2K; conditions: at 200 nM
T1 sequence (whole entry): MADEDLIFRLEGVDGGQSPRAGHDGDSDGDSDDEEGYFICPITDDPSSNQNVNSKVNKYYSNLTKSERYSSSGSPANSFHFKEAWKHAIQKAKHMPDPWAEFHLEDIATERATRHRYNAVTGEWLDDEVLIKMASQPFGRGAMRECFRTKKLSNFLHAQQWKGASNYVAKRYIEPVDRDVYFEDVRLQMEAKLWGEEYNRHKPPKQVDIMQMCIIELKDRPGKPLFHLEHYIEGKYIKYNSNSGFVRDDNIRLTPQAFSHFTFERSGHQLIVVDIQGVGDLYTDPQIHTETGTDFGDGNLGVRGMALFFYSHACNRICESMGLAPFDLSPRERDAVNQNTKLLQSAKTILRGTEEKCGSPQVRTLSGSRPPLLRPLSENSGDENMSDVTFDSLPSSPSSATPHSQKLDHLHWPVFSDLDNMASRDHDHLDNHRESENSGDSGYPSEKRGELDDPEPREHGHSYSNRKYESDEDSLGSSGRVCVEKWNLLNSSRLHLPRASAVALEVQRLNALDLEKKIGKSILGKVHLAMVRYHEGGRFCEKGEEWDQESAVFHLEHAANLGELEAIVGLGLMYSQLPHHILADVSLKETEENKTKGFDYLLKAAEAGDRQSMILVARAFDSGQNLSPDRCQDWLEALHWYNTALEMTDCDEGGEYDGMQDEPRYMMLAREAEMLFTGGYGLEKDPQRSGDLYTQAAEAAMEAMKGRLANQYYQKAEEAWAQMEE

[3] = molecular target: T2, Mitogen-activated protein kinase kinase kinase 15 (Homo sapiens) (UniProt Q6ZN16); assay: Selectivity interaction (KinomeScan (DiscoverX)) EUB0001049a MAP3K15; conditions: at 1 µM
T2 sequence (whole entry): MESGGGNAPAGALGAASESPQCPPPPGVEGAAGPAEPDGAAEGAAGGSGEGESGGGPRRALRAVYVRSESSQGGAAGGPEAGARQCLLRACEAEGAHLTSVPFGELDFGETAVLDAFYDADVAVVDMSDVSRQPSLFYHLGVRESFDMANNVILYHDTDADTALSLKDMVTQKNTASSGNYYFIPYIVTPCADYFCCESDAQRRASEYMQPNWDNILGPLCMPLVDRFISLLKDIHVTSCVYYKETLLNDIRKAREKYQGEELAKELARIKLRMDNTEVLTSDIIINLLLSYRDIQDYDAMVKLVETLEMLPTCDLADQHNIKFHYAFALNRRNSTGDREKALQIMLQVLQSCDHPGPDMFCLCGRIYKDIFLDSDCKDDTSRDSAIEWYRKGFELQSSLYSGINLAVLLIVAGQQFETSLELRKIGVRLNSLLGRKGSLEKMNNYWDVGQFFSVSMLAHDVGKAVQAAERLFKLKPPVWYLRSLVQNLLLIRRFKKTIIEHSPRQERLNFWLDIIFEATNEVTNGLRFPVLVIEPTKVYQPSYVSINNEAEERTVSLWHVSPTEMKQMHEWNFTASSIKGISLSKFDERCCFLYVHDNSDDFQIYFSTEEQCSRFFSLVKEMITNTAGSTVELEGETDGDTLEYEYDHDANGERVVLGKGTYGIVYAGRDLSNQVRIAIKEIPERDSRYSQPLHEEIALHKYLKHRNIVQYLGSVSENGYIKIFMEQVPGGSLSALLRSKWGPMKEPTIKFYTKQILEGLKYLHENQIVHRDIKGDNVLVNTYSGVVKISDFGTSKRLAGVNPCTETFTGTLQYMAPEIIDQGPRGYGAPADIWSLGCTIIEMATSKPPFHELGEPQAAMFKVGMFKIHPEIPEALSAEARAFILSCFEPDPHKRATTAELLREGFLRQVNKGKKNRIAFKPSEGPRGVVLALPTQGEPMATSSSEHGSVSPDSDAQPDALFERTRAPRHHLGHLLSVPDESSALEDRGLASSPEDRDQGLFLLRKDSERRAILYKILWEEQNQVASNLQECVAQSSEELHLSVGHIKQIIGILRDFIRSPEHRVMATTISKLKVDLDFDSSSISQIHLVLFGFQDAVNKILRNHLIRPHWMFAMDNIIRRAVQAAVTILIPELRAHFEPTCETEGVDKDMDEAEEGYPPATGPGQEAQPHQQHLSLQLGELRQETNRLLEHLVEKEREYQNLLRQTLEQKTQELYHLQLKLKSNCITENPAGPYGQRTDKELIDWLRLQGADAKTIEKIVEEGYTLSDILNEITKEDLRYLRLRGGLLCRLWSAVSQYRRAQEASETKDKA

[4] = molecular target: T3, Aurora kinase A (Homo sapiens) (UniProt O14965); assay: Selectivity interaction (Ambit KINOMEscan and KiNATiv profiling in Jurkat cells) EUB0000090b STK6; type: cell-based; conditions: at 1 µM
T3 sequence (whole entry): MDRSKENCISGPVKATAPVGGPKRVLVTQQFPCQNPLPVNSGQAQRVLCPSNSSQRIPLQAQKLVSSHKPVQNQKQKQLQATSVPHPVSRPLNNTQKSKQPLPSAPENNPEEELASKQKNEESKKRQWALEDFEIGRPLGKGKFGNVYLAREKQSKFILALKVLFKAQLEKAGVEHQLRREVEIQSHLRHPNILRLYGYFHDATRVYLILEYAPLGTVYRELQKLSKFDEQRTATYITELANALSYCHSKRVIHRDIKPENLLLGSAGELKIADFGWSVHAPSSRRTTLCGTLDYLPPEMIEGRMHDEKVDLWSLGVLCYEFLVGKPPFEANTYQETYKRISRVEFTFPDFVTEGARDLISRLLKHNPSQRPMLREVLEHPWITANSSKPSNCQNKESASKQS

Sequence of Protein-tyrosine kinase 6 (Q13882 whole entry, looked up): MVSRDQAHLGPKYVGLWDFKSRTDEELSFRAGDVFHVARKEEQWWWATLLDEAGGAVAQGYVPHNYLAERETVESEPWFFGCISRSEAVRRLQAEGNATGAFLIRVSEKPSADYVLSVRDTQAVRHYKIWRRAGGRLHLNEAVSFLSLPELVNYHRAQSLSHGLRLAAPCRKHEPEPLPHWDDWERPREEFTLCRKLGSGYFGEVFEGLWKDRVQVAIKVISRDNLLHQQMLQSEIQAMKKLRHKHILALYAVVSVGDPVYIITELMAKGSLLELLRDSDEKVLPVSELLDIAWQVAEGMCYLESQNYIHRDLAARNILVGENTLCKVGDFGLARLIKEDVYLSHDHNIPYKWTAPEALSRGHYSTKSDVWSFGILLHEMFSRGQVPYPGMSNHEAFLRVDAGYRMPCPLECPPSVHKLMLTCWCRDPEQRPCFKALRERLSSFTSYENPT

`CCC(=O)N1CCN(c2ccc(-n3c(=O)ccc4cnc5ccc(-c6cnc7ccccc7c6)cc5c43)cc2C(F)(F)F)CC1` gave a % of control [1] of 51%.

`CC[C@@H]1[C@H](F)C(=O)N[C@@H]1COc1nccc2cc(C(N)=O)c(OC)cc12` [ZIMLOVISERTIB] was tested, and the % of inhibition [2] was 21.1%.

In the case of `COc1cc(Nc2nc(C)cc(-c3cnn4nc(OC)ccc34)n2)cc(C(F)(F)F)c1`, the % of control [3] is reported as 100%.

In the case of `CN(C)C/C=C/C(=O)Nc1ccc(C(=O)N2CCCC(Nc3ncc(Cl)c(-c4c[nH]c5ccccc45)n3)C2)cc1` (centres undefined), the % of control [4] is reported as 96%.
